Laboratory results: patent US20260242365A1, “USES OF CERTAIN 1,4-OXAZEPANE-2-CARBOXAMIDES AS DPP1 INHIBITORS” (Insmed Incorporated, priority 2023, published 2026)
One block for each compound: values may come before it.

Tests used:
DPP1 in HL-60 cells = molecular target: T1, DPP1 in HL-60 cells (Homo sapiens, UniProt P53634); assay: DPP1 Cell IC50 Assay; type: cell-based; conditions: H-Gly-Phe-AFC substrate
T1 construct: HL-60 cells (ATCC; host or cells: HL-60
Description: HL-60 cells (ATCC; Manassas, VA) were maintained in RPMI-1640 supplemented with 20% heat-inactivated FBS and 1X Antibiotic Antimycotic (Cytiva; Marlborough, MA). Media was changed every three to four days and cells were not allowed to exceed 1×10^6 cells per mL. Prior to assay, cells were collected by centrifugation at 500 rcf for 3 minutes, resuspended in RPMI and counted. Cells were diluted in RPMI to a concentration of 5×10^5 live cells per mL and transferred to black 96-well plates for assay, 60 μL per well. Test articles were diluted in RPMI plus 0.5% DMSO, and 20 μL was added to each assay well. Compound was allowed to pre-incubate with cells with gentle shaking at 100 rpm for 60 minutes at 37° C. in a cell culture incubator maintained at 5% CO2, after which 20 μL of 500 μM H-Gly-Phe-AFC substrate (MP Biomedicals; Solon, OH) in RPMI was added to each well. Plates were returned to the incubator with shaking at 100 rpm for 30 minutes, after which fluorescence was measured at Excitation/Emission 400/505 nm. Percent (%) Inhibition was calculated from RFU values compared to control cell wells that received only RPMI plus 0.5% DMSO. IC50 values for each compound were calculated via the XLFit (IDBS Version 5.3.1.3) Add-On to Microsoft Excel using the four parameter fit equation y=(A+ ((B−A)/(1+ ((C/x)^D)))), which appears as equation number 205 (4 Parameter Logistic Model or Sigmoidal Dose-Response Model) in XLFit.

Neutrophil elastase (NE) = assay: Neutrophil elastase activity in lysates of mouse bone marrow progenitor cells differentiated into neutrophils under DPP1 inhibitor; type: cell-based
Description: Male or female C57BL/6 mice at the age of 8-14 weeks were used.
The two femurs and two tibias were removed out of a single mouse and gauze was used to remove the muscles and residue tissues. A sterile environment for surgical instruments and surgical sites is maintained. The bones were put into one 15-mL tube with cold sterile RPMI medium and placed on ice until further processing is performed.
A fresh 50-mL tube is placed on ice and a fresh 40/70 μm cell strainer (CLS431750, Sigma) is inserted into the top of the Falcon tube. Both ends of two femurs and two tibias are cut with bone cutters and flush bone marrow of all bones from one single mouse are placed into the cell strainer. 5-mL of ice-cold RPMI (RPMI medium containing 10 mM HEPES, pH 7.4) was used for each femur or tibia using a blunt needle (25 G needle), totaling about 20 mL per tube.
The cell suspension is centrifuged at 600×g for 5 min at 4° C. and the supernatant is carefully discarded.
The cell pellet is resuspended in 400 μL of ice-cold MACS buffer (PH7.2 PBS plus 0.5% BSA and 2 mM EDTA) for one adult mouse (optimized for 4 bones/mouse).
100 μL Direct Lineage Cell Depletion Cocktail (which is enough for 100 million cells depletion) is added. The components are mixed well and incubated for 10 min. at 2° C.-8° C.
Magnetic separation LS Column (MACS, Miltenyi, 130 042 401) is prepared by placing it in the magnetic field of MACS Separator and rinsing with 3 mL of ice-cold MACS buffer.
Cell suspension is applied onto the column. Flow-through containing unlabeled cells, representing the enriched lineage negative cells, is collected.
Column is washed with 3×3 mL of ice-cold MACS buffer. Unlabeled cells that pass through are collected, representing the enriched lineage negative cells, and combined with the flow-through from prior step.
The cell suspension is centrifuged at 600×g for 5 min at 4° C., and the supernatant is carefully discarded. The pellet is washed once with 10 mL ice cold IMDM medium (IMDM GlutaMax (Gibco, 31980030) plus 10% FCS and 1% PS).
The cell pellet is resuspended with 2 mL ice-cold complete IMDM medium and the cells are counted. The cells are then ready for neutrophil differentiation.
The resulting undifferentiated bone marrow cells are in complete IMDM medium (IMDM with 10% FBS and 1% antibiotics); and the concentration of cells is adjusted to 1×10^5 cells/mL, supplemented with 50 ng/ml of SCF (BioLegend, 579704) and 50 ng/ml of IL 3 (BioLegend, 575504). The cells are subgrouped and the respective DPP1 inhibitors are added accordingly. Cells are then cultivated in a flask at 37° C. for 3 days.
Cells are checked each day for expansion and maintaining a final concentration between 2-10×10^5 cells/ml. On day 3, cells are counted. 3-4 million cells for each group are harvested and lystates prepared for NSPs activity detection. The left cells are resuspended at 2× 10^5 cells/mL in fresh medium supplemented with 50 ng/ml of SCF, 50 ng/ml of IL 3 and 50 ng/ml of G-CSF (BioLegend, 574604). The DPP1 inhibitors are refreshed in the medium. Cells are then cultivated in a flask at 37° C. for another 2 days.
On day 5, cells are counted. 3-4 million cells/condition are harvested and the cells are lysed to prepare samples for NSPs activity detection. The remaining cells are collected by centrifugation at 600×g for 5 min. The left cells are washed once in 1×PBS. After the wash, the pelleted cells are resuspended in complete IMDM medium at 4-6×10^5 cells/mL supplemented with 50 ng/ml of G-CSF only. The DPP1 inhibitors in the medium are refreshed. Cells incubate for additional 2 days, for a total of 7 days from day of harvest. On day 7, cells are counted. 3-4 million cells/condition are harvested and the cell lysed to prepare samples for NSPs activity detection.
3-4 million cells are collected into Eppendorf tubes. Samples are spun down at 600×g, 4° C. for 5 min. The supernatant is removed and resuspended in 1 mL PBS. […]

T1 sequence (P53634 25-463): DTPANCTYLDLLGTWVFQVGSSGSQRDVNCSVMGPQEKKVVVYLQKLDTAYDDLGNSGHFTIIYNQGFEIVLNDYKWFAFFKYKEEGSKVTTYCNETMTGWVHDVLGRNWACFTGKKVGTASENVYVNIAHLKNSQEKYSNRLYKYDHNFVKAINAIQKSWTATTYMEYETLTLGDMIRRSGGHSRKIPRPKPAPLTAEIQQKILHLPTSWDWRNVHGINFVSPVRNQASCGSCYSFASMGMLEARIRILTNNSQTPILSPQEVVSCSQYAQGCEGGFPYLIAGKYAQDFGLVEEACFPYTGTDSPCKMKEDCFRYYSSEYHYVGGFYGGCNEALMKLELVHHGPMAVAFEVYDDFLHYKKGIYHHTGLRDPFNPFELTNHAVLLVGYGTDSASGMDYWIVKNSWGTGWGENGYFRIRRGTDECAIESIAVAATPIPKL

- IC50 (DPP1 in HL-60 cells): 1.1 ± 0.2 nM
SMILES: COC1CNC[C@@H](C(=O)N[C@H](C#N)Cc2ccc(-c3ccc4oc(=O)n(C)c4c3)cc2)OC1 (mixture of isomers) [INSM-202, (6-rac)-(2S)—N-[(1S)-1-cyano-2-[4-(3-methyl-2-oxo-2,3-dihydro-1,3-benzoxazol-5-yl)phenyl]ethyl]-6-methoxy-1,4-oxazepane-2-carboxamide]
- Neutrophil Elastase Activity (% reduction from control) (Neutrophil elastase (NE); 0.02 μM, Day 3): 86%
- Neutrophil Elastase Activity (% reduction from control) (Neutrophil elastase (NE); 0.02 μM, Day 5): 80%
- Neutrophil Elastase Activity (% reduction from control) (Neutrophil elastase (NE); 0.02 μM, Day 7): 89%
- Neutrophil Elastase Activity (% reduction from control) (Neutrophil elastase (NE); 0.1 μM, Day 3): 78%
- Neutrophil Elastase Activity (% reduction from control) (Neutrophil elastase (NE); 0.1 μM, Day 5): 90%
- Neutrophil Elastase Activity (% reduction from control) (Neutrophil elastase (NE); 0.1 μM, Day 7): 88%
- maximum inhibition of NE activity observed (Neutrophil elastase (NE); regardless of day): ~ 85%

- IC50 (DPP1 in HL-60 cells): 13.4 ± 4.1 nM
SMILES: Cn1c(=O)oc2ccc(-c3ccc(C[C@@H](C#N)NC(=O)[C@@H]4CNC[C@H](O)CO4)cc3)cc21 (single isomer, unassigned) [INSM-201, (2S,6S*)—N-[(1S)-1-cyano-2-[4-(3-methyl-2-oxo-2,3-dihydro-1,3-benzoxazol-5-yl)phenyl]ethyl]-6-hydroxy-1,4-oxazepane-2-carboxamide]
- reduction in NE activity (Neutrophil elastase (NE)): concentration-dependent reduction in NE activity
- Neutrophil Elastase Activity (% reduction from control) (Neutrophil elastase (NE); 0.02 μM, Day 3): 67%
- Neutrophil Elastase Activity (% reduction from control) (Neutrophil elastase (NE); 0.02 μM, Day 5): 42%
- Neutrophil Elastase Activity (% reduction from control) (Neutrophil elastase (NE); 0.02 μM, Day 7): 78%
- Neutrophil Elastase Activity (% reduction from control) (Neutrophil elastase (NE); 0.1 μM, Day 3): 83%
- Neutrophil Elastase Activity (% reduction from control) (Neutrophil elastase (NE); 0.1 μM, Day 5): 83%
- Neutrophil Elastase Activity (% reduction from control) (Neutrophil elastase (NE); 0.1 μM, Day 7): 84%
- maximum inhibition of NE activity observed (Neutrophil elastase (NE); at 0.1 μM regardless of day): ~ 85%
- NE inhibition at low dose, fluctuations depending on the day (range) (Neutrophil elastase (NE); low dose, range over days): 42-78%

- IC50 (DPP1 in HL-60 cells): 0.6 ± 0.01 nM
SMILES: COC1CNC[C@@H](C(=O)N[C@H](C#N)Cc2ccc(-c3ccc4oc(=O)n(C)c4c3)cc2)OC1 (single isomer, unassigned) [INSM-203, (2S,6R*)—N-[(1S)-1-cyano-2-[4-(3-methyl-2-oxo-2,3-dihydro-1,3-benzoxazol-5-yl)phenyl]ethyl]-6-methoxy-1,4-oxazepane-2-carboxamide]
- Neutrophil Elastase Activity (% reduction from control) (Neutrophil elastase (NE); 0.02 μM, Day 3): 89%
- Neutrophil Elastase Activity (% reduction from control) (Neutrophil elastase (NE); 0.02 μM, Day 5): 82%
- Neutrophil Elastase Activity (% reduction from control) (Neutrophil elastase (NE); 0.02 μM, Day 7): 84%
- Neutrophil Elastase Activity (% reduction from control) (Neutrophil elastase (NE); 0.1 μM, Day 3): 91%
- Neutrophil Elastase Activity (% reduction from control) (Neutrophil elastase (NE); 0.1 μM, Day 5): 84%
- Neutrophil Elastase Activity (% reduction from control) (Neutrophil elastase (NE); 0.1 μM, Day 7): 86%
- maximum inhibition of NE activity observed (Neutrophil elastase (NE); regardless of day): ~ 85%
